Measured values taken from US7851632B2, “Biphenyl compounds useful as muscarinic receptor antagonists” (Theravance, Inc., priority 2004, dated 2010).

Test system: ACh-induced bronchoconstriction
Test: Duration of bronchoprotection in guinea pig model of acetylcholine-induced bronchoconstriction
Type: in vivo
Conditions: inhalation, 1.5 hours post-dose
Protocol: Determination of Duration of Bronchoprotection in Guinea Pig Model of Acetylcholine-Induced Bronchoconstriction
Groups of six male guinea pigs (Duncan-Hartley (HsdPoc:DH) Harlan, Madison, Wis.) weighing between 250 and 350 g were individually identified by cage cards. Throughout the study animals were allowed access to food and water ad libitum.
Test compounds were administered via inhalation over 10 minutes in a whole-body exposure dosing chamber (R&S Molds, San Carlos, Calif.). The dosing chambers were arranged so that an aerosol was simultaneously delivered to 6 individual chambers from a central manifold. Guinea pigs were exposed to an aerosol of a test compound or vehicle (WFI). […] This was measured gravimetrically by comparing pre- and post-nebulization weights of the filled nebulizer.
The bronchoprotective effects of test compounds administered via inhalation were evaluated using whole body plethysmography at 1.5, 24, 48 and 72 hours post-dose.
Forty-five minutes prior to the start of the pulmonary evaluation, each guinea pig was anesthetized with an intramuscular injection of ketamine (43.75 mg/kg), xylazine (3.50 mg/kg) and acepromazine (1.05 mg/kg). […] The depth of anesthesia was monitored and adjusted if the animal responded to pinching of its paw or if the respiration rate was greater than 100 breaths/minute. […]

In the case of `CN(CCN1CCC(OC(=O)Nc2ccccc2-c2ccccc2)CC1)C(=O)c1ccc(CNCc2ccc(O)cc2)cc1` [Example 1, Biphenyl-2-ylcarbamic Acid 1-[2-({4-[(4-Hydroxybenzylamino)methyl]benzoyl}methylamino)ethyl]piperidin-4-yl Ester], the “PD2(50) for ACh-induced bronchoconstriction” value is reported as “less than 200 μg/mL”.
